These are literature values, as cited in article PMC3433420 (PLoS ONE, 2012).

Read-outs that look alike come from different tables or passages of the source.

In this data set the target is SH2 and PTB domains. To be noted: cited from earlier work. From the text: Supplement pone.0044471.s022.xlsx, sheet "Most recent PM interactions" | column: Kd || Supplement pone.0044471.s022.xlsx, sheet "All original PM interactions" | column: Kd

On to “LHRIpYTHQSDVWd [ErbB1 pY891, N-terminally rhodamine-labeled 13-mer phosphopeptide]”, for which the Kd is 1130 nM (protein HSH2D, ref Kaushansky et al. Mol Biosys 2008) and 300 nM (protein TNS4, ref Kaushansky et al. Mol Biosys 2008).
As for PLTCSPQPEpYVNQPDVR [ErbB2 1139], the Kd is, setting by setting: (Protein ABL1, most recent PM interactions, ref Jones et al. 2006 / Kaushansky et al. Chem and Biol 2008) 160 nM; (Protein ABL2, most recent PM interactions, ref Jones et al. 2006 / Kaushansky et al. Chem and Biol 2008) 70 nM; (Protein BCAR3, most recent PM interactions, ref Jones et al. 2006 / Kaushansky et al. Chem and Biol 2008) 1000 nM; (Protein BMX, most recent PM interactions, ref Jones et al. 2006 / Kaushansky et al. Chem and Biol 2008) 520 nM; (Protein FGR, most recent PM interactions, ref Jones et al. 2006 / Kaushansky et al. Chem and Biol 2008) 450 nM; (Protein GRAP2, most recent PM interactions, ref Jones et al. 2006 / Kaushansky et al. Chem and Biol 2008) 960 nM. Besides, the Kd was 76 nM (Protein GRB2, most recent PM interactions, ref Jones et al. 2006 / Kaushansky et al. Chem and Biol 2008); 1510 nM (Protein ITK, most recent PM interactions, ref Jones et al. 2006 / Kaushansky et al. Chem and Biol 2008); 780 nM (Protein NCK2, most recent PM interactions, ref Jones et al. 2006 / Kaushansky et al. Chem and Biol 2008); 510 nM (Protein PIK3R1-N, most recent PM interactions, ref Jones et al. 2006 / Kaushansky et al. Chem and Biol 2008); 740 nM (Protein PIK3R1-NC, most recent PM interactions, ref Jones et al. 2006 / Kaushansky et al. Chem and Biol 2008); 280 nM (Protein PIK3R2-N, most recent PM interactions, ref Jones et al. 2006 / Kaushansky et al. Chem and Biol 2008). Besides, the Kd by setting is: (Protein PIK3R2-NC, most recent PM interactions, ref Jones et al. 2006 / Kaushansky et al. Chem and Biol 2008) 780 nM; (Protein PIK3R3-C, most recent PM interactions, ref Jones et al. 2006 / Kaushansky et al. Chem and Biol 2008) 1220 nM; (Protein PIK3R3-N, most recent PM interactions, ref Jones et al. 2006 / Kaushansky et al. Chem and Biol 2008) 400 nM; (Protein PIK3R3-NC, most recent PM interactions, ref Jones et al. 2006 / Kaushansky et al. Chem and Biol 2008) 300 nM; (Protein PLCG1-C, most recent PM interactions, ref Jones et al. 2006 / Kaushansky et al. Chem and Biol 2008) 1930 nM; (Protein PLCG2-NC, most recent PM interactions, ref Jones et al. 2006 / Kaushansky et al. Chem and Biol 2008) 1280 nM. For the same substance, the Kd reads like this: (Protein PTPN11-NC, most recent PM interactions, ref Jones et al. 2006 / Kaushansky et al. Chem and Biol 2008) 880 nM; (Protein RASA1-N, most recent PM interactions, ref Jones et al. 2006 / Kaushansky et al. Chem and Biol 2008) 680 nM; (Protein SH2D2A, most recent PM interactions, ref Jones et al. 2006 / Kaushansky et al. Chem and Biol 2008) 980 nM; (Protein SH3BP2, most recent PM interactions, ref Jones et al. 2006 / Kaushansky et al. Chem and Biol 2008) 410 nM; (Protein SYK-NC, most recent PM interactions, ref Jones et al. 2006 / Kaushansky et al. Chem and Biol 2008) 970 nM; (Protein TENC1, most recent PM interactions, ref Jones et al. 2006 / Kaushansky et al. Chem and Biol 2008) 570 nM. The Kd is, setting by setting: (Protein TNS3, most recent PM interactions, ref Jones et al. 2006 / Kaushansky et al. Chem and Biol 2008) 770 nM; (Protein VAV1, most recent PM interactions, ref Jones et al. 2006 / Kaushansky et al. Chem and Biol 2008) 210 nM; (Protein VAV2, most recent PM interactions, ref Jones et al. 2006 / Kaushansky et al. Chem and Biol 2008) 230 nM.
Turning to “DAEEpYLVPQQGFd [ErbB2 pY1023, N-terminally rhodamine-labeled 13-mer phosphopeptide]”, the dissociation constant (Kd) (protein ABL2, ref Jones et al. 2006 / Kaushansky et al. Chem and Biol 2008) was 2000 nM; the equilibrium dissociation constant (Kd) (protein BLK, ref Jones et al. 2006 / Kaushansky et al. Chem and Biol 2008) is 2000 nM; the dissociation constant (Kd) (protein CRK, ref Jones et al. 2006 / Kaushansky et al. Chem and Biol 2008) is 2000 nM; the dissociation constant Kd (protein CRKL, ref Jones et al. 2006 / Kaushansky et al. Chem and Biol 2008) is 2000 nM; the Kd (protein DAPP1, ref Jones et al. 2006 / Kaushansky et al. Chem and Biol 2008) is 2000 nM; the Kd (protein FGR, ref Jones et al. 2006 / Kaushansky et al. Chem and Biol 2008) is 2000 nM. For the same substance, the Kd is 2000 nM (protein ITK, ref Jones et al. 2006 / Kaushansky et al. Chem and Biol 2008); 2000 nM (protein LYN, ref Jones et al. 2006 / Kaushansky et al. Chem and Biol 2008); 2000 nM (protein NCK2, ref Jones et al. 2006 / Kaushansky et al. Chem and Biol 2008); 2000 nM (protein PIK3R1-C, ref Jones et al. 2006 / Kaushansky et al. Chem and Biol 2008); 1640 nM (protein PIK3R1-NC, ref Jones et al. 2006 / Kaushansky et al. Chem and Biol 2008); 1950 nM (protein PIK3R2-N, ref Jones et al. 2006 / Kaushansky et al. Chem and Biol 2008). For the same substance, the Kd (protein PIK3R2-NC, ref Jones et al. 2006 / Kaushansky et al. Chem and Biol 2008) is 2000 nM; the equilibrium dissociation constant (Kd) (protein PIK3R3-N, ref Jones et al. 2006 / Kaushansky et al. Chem and Biol 2008) is 1930 nM; the Kd (protein PIK3R3-NC, ref Jones et al. 2006 / Kaushansky et al. Chem and Biol 2008) was 530 nM; the Kd (protein PLCG1-C, ref Jones et al. 2006 / Kaushansky et al. Chem and Biol 2008) was 1460 nM; the dissociation constant (Kd) (protein PLCG1-NC, ref Jones et al. 2006 / Kaushansky et al. Chem and Biol 2008) was 2000 nM; the Kd (protein PTPN6-C, ref Jones et al. 2006 / Kaushansky et al. Chem and Biol 2008) is 2000 nM. For the same substance, the dissociation constant Kd is 2000 nM (protein RASA1-N, ref Jones et al. 2006 / Kaushansky et al. Chem and Biol 2008); 2000 nM (protein RASA1-NC, ref Jones et al. 2006 / Kaushansky et al. Chem and Biol 2008); 2000 nM (protein SH2B2, ref Jones et al. 2006 / Kaushansky et al. Chem and Biol 2008); 2000 nM (protein SH2D3A, ref Jones et al. 2006 / Kaushansky et al. Chem and Biol 2008); 2000 nM (protein SHC1-PTB, ref Jones et al. 2006 / Kaushansky et al. Chem and Biol 2008); 2000 nM (protein SHC2-PTB, ref Jones et al. 2006 / Kaushansky et al. Chem and Biol 2008). Also, the Kd was 2000 nM (protein SHC3, ref Jones et al. 2006 / Kaushansky et al. Chem and Biol 2008); 2000 nM (protein SLA2, ref Jones et al. 2006 / Kaushansky et al. Chem and Biol 2008); 2000 nM (protein SLA, ref Jones et al. 2006 / Kaushansky et al. Chem and Biol 2008); 2000 nM (protein SOCS1, ref Jones et al. 2006 / Kaushansky et al. Chem and Biol 2008); 2000 nM (protein SOCS2, ref Jones et al. 2006 / Kaushansky et al. Chem and Biol 2008); 760 nM (protein SRC, ref Jones et al. 2006 / Kaushansky et al. Chem and Biol 2008). For the same substance, the equilibrium dissociation constant (Kd) reads like this: (protein SUPT6H, ref Jones et al. 2006 / Kaushansky et al. Chem and Biol 2008) 910 nM; (protein SYK-NC, ref Jones et al. 2006 / Kaushansky et al. Chem and Biol 2008) 370 nM; (protein TEC, ref Jones et al. 2006 / Kaushansky et al. Chem and Biol 2008) 2000 nM; (protein TENC1, ref Jones et al. 2006 / Kaushansky et al. Chem and Biol 2008) 2000 nM; (protein VAV1, ref Jones et al. 2006 / Kaushansky et al. Chem and Biol 2008) 2000 nM; (protein VAV2, ref Jones et al. 2006 / Kaushansky et al. Chem and Biol 2008) 2000 nM. Further, the Kd was 2000 nM (protein VAV3, ref Jones et al. 2006 / Kaushansky et al. Chem and Biol 2008); 1170 nM (protein YES1, ref Jones et al. 2006 / Kaushansky et al. Chem and Biol 2008).
